According to ChEMBL document CHEMBL4346707, “Synthesis and biological evaluation of pyrazolo[3,4-b]pyridine-3-yl pyrimidine derivatives as sGC stimulators for the treatment of pulmonary hypertension” (Eur J Med Chem, 2019):
pEC50: −log10 of the molar value. Calls of active or inactive are those of the source. The rule behind the calls is not given here.

Key:
Rattus norvegicus = species: Rattus norvegicus; assay: Stimulatory activity at sGC in Sprague-Dawley rat thoracic aorta assessed as inhibition of norepinephrine-induced contraction at 1 uM by JZ100 strain guages based isometric analysis relative to control; set-up: scale not given: the % may be the effect or the level left
Heart [1] = assay: Cardioprotective activity in Langendorff perfused Sprague-Dawley rat heart assessed as reduction of coronary perfusion pressure; format: functional, tissue-based
[2] = Stimulatory activity at sGC in Sprague-Dawley rat thoracic aorta assessed as inhibition of norepinephrine-induced contraction by JZ100 strain guages based isometric analysis
[3] = Apparent clearance in female Beagle dog at 0.5 mg/kg, po by LC-MS/MS analysis; format: ADME, organism-based, Canis lupus familiaris; conditions: in vivo, read-out: CL(app) (converted)
[4] = Half life in male Beagle dog at 4.5 mg/kg, po by LC-MS/MS analysis; format: ADME, organism-based, Canis lupus familiaris; conditions: in vivo
Heart [5] = assay: Potency index. ratio of EC50 of riociguat to EC50 of compound for cardioprotective activity in Langendorff perfused Sprague-Dawley rat heart assessed as increase in coronary artery relaxation; format: functional
[6] = Apparent clearance in male Beagle dog at 1.5 mg/kg, po by LC-MS/MS analysis; format: ADME, organism-based, Canis lupus familiaris; conditions: in vivo, read-out: CL(app) (converted)
[7] = Half life in male Beagle dog at 1.5 mg/kg, po by LC-MS/MS analysis; format: ADME, organism-based, Canis lupus familiaris; conditions: in vivo
[8] = Tmax in female Beagle dog at 0.5 mg/kg, po by LC-MS/MS analysis; format: ADME, organism-based, Canis lupus familiaris; conditions: in vivo
Heart [9] = assay: Cardioprotective activity in Langendorff perfused Sprague-Dawley rat heart assessed as increase in coronary artery blood flow; format: functional, tissue-based
[10] = Apparent volume of distribution in female Beagle dog at 0.5 mg/kg, po; format: ADME, organism-based, Canis lupus familiaris; conditions: in vivo
[11] = Tmax in male Beagle dog at 4.5 mg/kg, po by LC-MS/MS analysis; format: ADME, organism-based, Canis lupus familiaris; conditions: in vivo
Heart [12] = assay: Cardioprotective activity in Langendorff perfused Sprague-Dawley rat heart assessed as increase in coronary artery relaxation; format: functional, tissue-based
[13] = Cmax in female Beagle dog at 0.5 mg/kg, po by LC-MS/MS analysis; format: ADME, organism-based, Canis lupus familiaris; set-up: dose 0.5 mg/kg, route oral; conditions: in vivo
[14] = Half life in female Beagle dog at 0.5 mg/kg, po by LC-MS/MS analysis; format: ADME, organism-based, Canis lupus familiaris; conditions: in vivo
[15] = Tmax in male Beagle dog at 1.5 mg/kg, po by LC-MS/MS analysis; format: ADME, organism-based, Canis lupus familiaris; conditions: in vivo
[16] = Apparent volume of distribution in male Beagle dog at 1.5 mg/kg, po by LC-MS/MS analysis; format: ADME, organism-based, Canis lupus familiaris; conditions: in vivo
[17] = AUC (0 to infinity) in male Beagle dog at 0.5 mg/kg, po by LC-MS/MS analysis; format: ADME, organism-based, Canis lupus familiaris; set-up: dose 0.5 mg/kg, route oral, time infinity; conditions: in vivo
[18] = Apparent clearance in male Beagle dog at 0.5 mg/kg, po by LC-MS/MS analysis; format: ADME, organism-based, Canis lupus familiaris; conditions: in vivo, read-out: CL(app) (converted)
[19] = AUC (0 to infinity) in male Beagle dog at 1.5 mg/kg, po by LC-MS/MS analysis; format: ADME, organism-based, Canis lupus familiaris; set-up: dose 1.5 mg/kg, route oral, time infinity; conditions: in vivo
[20] = Tmax in male Beagle dog at 0.5 mg/kg, po by LC-MS/MS analysis; format: ADME, organism-based, Canis lupus familiaris; conditions: in vivo
[21] = Apparent clearance in male Beagle dog at 4.5 mg/kg, po by LC-MS/MS analysis; format: ADME, organism-based, Canis lupus familiaris; conditions: in vivo, read-out: CL(app) (converted)
Heart [22] = assay: Cardioprotective activity in Langendorff perfused Sprague-Dawley rat heart assessed as reduction of coronary perfusion pressure at 0.01 to 3 uM relative to control; format: functional
[23] = Cmax in male Beagle dog at 0.5 mg/kg, po by LC-MS/MS analysis; format: ADME, organism-based, Canis lupus familiaris; set-up: dose 0.5 mg/kg, route oral; conditions: in vivo
[24] = Cmax in male Beagle dog at 4.5 mg/kg, po by LC-MS/MS analysis; format: ADME, organism-based, Canis lupus familiaris; set-up: dose 4.5 mg/kg, route oral; conditions: in vivo
[25] = Apparent volume of distribution in male Beagle dog at 0.5 mg/kg, po by LC-MS/MS analysis; format: ADME, organism-based, Canis lupus familiaris; conditions: in vivo
[26] = AUC (0 to infinity) in male Beagle dog at 4.5 mg/kg, po by LC-MS/MS analysis; format: ADME, organism-based, Canis lupus familiaris; set-up: dose 4.5 mg/kg, route oral, time infinity; conditions: in vivo
[27] = Cmax in male Beagle dog at 1.5 mg/kg, po by LC-MS/MS analysis; format: ADME, organism-based, Canis lupus familiaris; set-up: dose 1.5 mg/kg, route oral; conditions: in vivo
[28] = Half life in male Beagle dog at 0.5 mg/kg, po by LC-MS/MS analysis; format: ADME, organism-based, Canis lupus familiaris; conditions: in vivo
[29] = AUC (0 to infinity) in female Beagle dog at 0.5 mg/kg, po by LC-MS/MS analysis; format: ADME, organism-based, Canis lupus familiaris; set-up: dose 0.5 mg/kg, route oral, time infinity; conditions: in vivo
[30] = Oral bioavailability (0 to infinity) in male Beagle dog at 0.5 mg/kg by LC-MS/MS analysis; format: ADME, organism-based, Canis lupus familiaris; conditions: in vivo
[31] = Apparent volume of distribution in male Beagle dog at 4.5 mg/kg, po by LC-MS/MS analysis; format: ADME, organism-based, Canis lupus familiaris; conditions: in vivo

## COC(=O)Nc1c(N)nc(-c2nn(Cc3cccnc3F)c3ncccc23)nc1N
Rattus norvegicus
  Activity: 11.8%

## CCN(C(=O)OC(C)C)c1c(N)nc(-c2nn(Cc3cccnc3F)c3ncccc23)nc1N
Rattus norvegicus
  Activity: 9%

## COC(=O)N(C)c1c(N)nc(-c2nn(Cc3cccs3)c3ncccc23)nc1N
Rattus norvegicus
  Activity: 45.1%

## CC(C)OC(=O)Nc1c(N)nc(-c2nn(Cc3ccc(F)s3)c3ncccc23)nc1N
Rattus norvegicus
  Activity: 17.1%

## CCN(C(=O)OC(C)C)c1c(N)nc(-c2nn(Cc3ccc(F)s3)c3ncccc23)nc1N
Rattus norvegicus
  Activity: 41%

## COC(=O)N(C)c1c(N)nc(-c2nn(Cc3ccccc3F)c3ncccc23)nc1N [RIOCIGUAT]
Rattus norvegicus
  Activity: 88.9%
Heart [1]
  pEC50: 6.57
[2]
  pEC50: 6.52

## COC(=O)Nc1c(N)nc(-c2nn(Cc3sccc3F)c3ncccc23)nc1N
Rattus norvegicus
  Activity: 14.3%

## CCN(C(=O)OC(C)C)c1c(N)nc(-c2nn(Cc3cncc(C)c3)c3ncccc23)nc1N
Rattus norvegicus
  Activity: 0%

## CCOC(=O)Nc1c(N)nc(-c2nn(Cc3sccc3F)c3ncccc23)nc1N
Rattus norvegicus
  Activity: 27.3%

## CCOC(=O)Nc1c(N)nc(-c2nn(Cc3ccc(F)s3)c3ncccc23)nc1N
Rattus norvegicus
  Activity: 57.4%

## Cc1cncc(Cn2nc(-c3nc(N)c(N(C)C(=O)OC(C)C)c(N)n3)c3cccnc32)c1
Rattus norvegicus
  Activity: 32.4%

## CC(C)OC(=O)Nc1c(N)nc(-c2nn(Cc3sccc3F)c3ncccc23)nc1N
Rattus norvegicus
  Activity: 42.3%

## CCOC(=O)N(C)c1c(N)nc(-c2nn(Cc3ccc(F)s3)c3ncccc23)nc1N
Rattus norvegicus
  Activity: 38.4%

## CC(C)OC(=O)N(C)c1c(N)nc(-c2nn(Cc3cccnc3F)c3ncccc23)nc1N
Rattus norvegicus
  Activity: 1.9%

## COC(=O)N(C)c1c(N)nc(-c2nn(Cc3sccc3F)c3ncccc23)nc1N
[3]
  CL/F: 42.3 mL/min/kg
Rattus norvegicus
  Activity: 87%
[4]
  half-life: 3.77 h
Heart [5]
  Ratio EC50: 3
[6]
  CL/F: 96 mL/min/kg
[7]
  half-life: 3.24 h
[8]
  Tmax: 1.25 h
Heart [9]
  Activity: Active
[10]
  Vz: 6.38 L/kg
[11]
  Tmax: 1.55 h
Heart [12]
  Activity: Active
[13]
  Cmax: 72.4 ng/mL
[14]
  half-life: 1.75 h
[15]
  Tmax: 0.75 h
[16]
  Vz: 43.47 L/kg
[17]
  AUC(0-inf): 213 ng·h/mL
[18]
  CL/F: 41 mL/min/kg
[19]
  AUC(0-inf): 373 ng·h/mL
Heart [1]
  Activity: Dose-dependent effect
  pEC50: 7.07
[20]
  Tmax: 0.6 h
[21]
  CL/F: 103 mL/min/kg
Heart [22]
  Emax: 60%
[23]
  Cmax: 83.8 ng/mL
[24]
  Cmax: 175 ng/mL
[25]
  Vz: 7.9 L/kg
[2]
  pEC50: 6.96
[26]
  AUC(0-inf): 874 ng·h/mL
[27]
  Cmax: 106 ng/mL
[28]
  half-life: 2.04 h
[29]
  AUC(0-inf): 198 ng·h/mL
[30]
  bioavailability: 80%
[31]
  Vz: 41.14 L/kg

## CCOC(=O)N(C)c1c(N)nc(-c2nn(Cc3sccc3F)c3ncccc23)nc1N
Rattus norvegicus
  Activity: 86.6%
[2]
  pEC50: 6.42

## CCN(C(=O)OC)c1c(N)nc(-c2nn(Cc3ccc(F)s3)c3ncccc23)nc1N
Rattus norvegicus
  Activity: 51.9%

## CCOC(=O)N(C)c1c(N)nc(-c2nn(Cc3cncc(C)c3)c3ncccc23)nc1N
Rattus norvegicus
  Activity: 47.4%

## COC(=O)N(C)c1c(N)nc(-c2nn(Cc3ccc(F)s3)c3ncccc23)nc1N
Rattus norvegicus
  Activity: 39.2%

## CC(C)OC(=O)Nc1c(N)nc(-c2nn(Cc3cccnc3F)c3ncccc23)nc1N
Rattus norvegicus
  Activity: 12.5%

## COC(=O)N(C)c1c(N)nc(-c2nn(Cc3cncc(C)c3)c3ncccc23)nc1N
Rattus norvegicus
  Activity: 31%

## COC(=O)N(C)c1c(N)nc(-c2nn(Cc3cccnc3F)c3ncccc23)nc1N
Rattus norvegicus
  Activity: 21.1%

## CCOC(=O)N(CC)c1c(N)nc(-c2nn(Cc3cncc(C)c3)c3ncccc23)nc1N
Rattus norvegicus
  Activity: 3%

## COC(=O)Nc1c(N)nc(-c2nn(Cc3ccc(F)s3)c3ncccc23)nc1N
Rattus norvegicus
  Activity: 30%

## CCN(C(=O)OC)c1c(N)nc(-c2nn(Cc3cncc(C)c3)c3ncccc23)nc1N
Rattus norvegicus
  Activity: 2.8%

## CCOC(=O)N(CC)c1c(N)nc(-c2nn(Cc3sccc3F)c3ncccc23)nc1N
Rattus norvegicus
  Activity: 85.6%
[2]
  pEC50: 6.62

## CC(C)OC(=O)N(C)c1c(N)nc(-c2nn(Cc3sccc3F)c3ncccc23)nc1N
Rattus norvegicus
  Activity: 75.1%
Heart [9]
  Activity: Active
Heart [12]
  Activity: Active
Heart [1]
  Activity: Dose-dependent effect
  pEC50: 6.96
Heart [22]
  Emax: 60%
[2]
  pEC50: 6.74

## CCOC(=O)N(CC)c1c(N)nc(-c2nn(Cc3ccc(F)s3)c3ncccc23)nc1N
Rattus norvegicus
  Activity: 48.4%

## CC(C)OC(=O)N(C)c1c(N)nc(-c2nn(Cc3ccc(F)s3)c3ncccc23)nc1N
Rattus norvegicus
  Activity: 38.1%

## CCN(C(=O)OC)c1c(N)nc(-c2nn(Cc3sccc3F)c3ncccc23)nc1N
Rattus norvegicus
  Activity: 85.4%
Heart [9]
  Activity: Active
Heart [12]
  Activity: Active
Heart [1]
  Activity: Dose-dependent effect
  pEC50: 6.74
Heart [22]
  Emax: 60%
[2]
  pEC50: 6.68

## CCN(C(=O)OC(C)C)c1c(N)nc(-c2nn(Cc3sccc3F)c3ncccc23)nc1N
Rattus norvegicus
  Activity: 76.2%
[2]
  pEC50: 6.06
